# Measurements as given in patent US4692433A, “Method and composition for regulating serum calcium levels of mammals” (The Regents of the University of California, priority 1985, dated 1987).
# Tests used:
# fasted normal rats = experiment: Serum calcium change after oral administration of salmon calcitonin preparations; type: in vivo, rat
# Procedure: (§1) The polypeptide hormone is incorporated into the liposome as follows: the phospholipid components are dissolved in an organic solvent such as chloroform. The solvent is then removed to produce a lipid film. A buffer solution containing the polypeptide hormone is then added and mixed to form a suspension of the phospholipid film and polypeptide hormone. The suspension is then sonicated to form the liposome-entrapped polypeptide hormone. The suspension is then centrifuged at 120,000 times g for 16 hours to obtain a pellet consisting of liposome-entrapped hormone while the supernatant contains the unentrapped hormone. The liposomes in the pellet are then taken up in a small amount of buffer and subsequently used to influence calcium homestasis by oral administration.
# Purified salmon and human calcitonin or human parathyroid hormone (1-34 amino acid fragment) were incorporated into liposomes consisting of natural or synthetic phospholipids and positively-charged amine-containingamphiphile. Liposomes containing the entrapped hormones were isolated by centrifugation, resuspended in buffer and administered by stomach tube to fasted normal rats (calcitonin) or fasted parathyroidectomized rats (parathyroid hormone). The serum calcium was determined at various time intervals in treated and untreated animals to assess the effect of the respective preparations. […]
# [1] = tested on: fasted parathyroidectomized rats; experiment: Serum calcium change after oral administration of PTH preparations by stomach tube; type: in vivo, rat
# Procedure: as §1
# Purified salmon and human calcitonin or human parathyroid hormone (1-34 amino acid fragment) were incorporated into liposomes consisting of natural or synthetic phospholipids and positively-charged amine-containingamphiphile. Liposomes containing the entrapped hormones were isolated by centrifugation, resuspended in buffer and administered by stomach tube to fasted normal rats (calcitonin) or fasted parathyroidectomized rats (parathyroid hormone). The serum calcium was determined at various time intervals in treated and untreated animals to assess the effect of the respective preparations.
# 450 micromoles of egg phosphatidylcholine (ePC) and 50 micromoles of stearylamine (SA) were dissolved in 2 to 3 ml of anhydrous chloroform placed in a 30 ml glass stopper tube and the solvent was removed in vacuo. To the thin film of lipid remaining on the wall of the tube was added 5.0 ml of buffer (20 mM NaCl containing 5 mM Tris, pH 7.4) containing 1 mg human PTH (hPTH 1-34) and 1×10^6 CPM of I^125 -human PTH tracer (hPTH 1-34). The buffer was mixed at room temperature for 5 minutes using a vortex mixer.
# After vortexing the mixture was sonicated for 3 minutes at room temperature using the cuphorn of a Heat Systems Ultrasonics sonicator at maximal output. […]
Compound,enhancement of the calcitonin effect on serum calcium by additive (in words) (fasted normal rats),"Change in serum Ca2+ ([1]; Table 2: oral, 40 μg, after 2 hr, triplicate, mean ± Std. error of mean)","Change in serum Ca2+ ([1]; Table 3: 2 hours after oral administration to rats, 40 μg PTH, values marked (3) are triplicate mean ± Std. error of mean)","effect on serum calcium (in words) ([1]; oral administration to rats, equivalent dose)"
CC(=O)Oc1ccccc1C(=O)O [aspirin],enhances slightly the effect of free CT,,,
"Free PTH: free human parathyroid hormone, 1-34 amino acid fragment, given orally (SVSEIQLMHNLGKHLNSMERVEWLRKKLQDVHNF; Parathyroid hormone; UniProt P01270 32-65, looked up, fragment)",,+0.08 0.25 mg/dl,-0.05 mg/dL,no effect
